# Experimental data from PubChem BioAssay (NCI).
#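 Values below derive from 48-hour exposures of cells grown in 96-well plates, with endpoints linearly interpolated between the two concentrations bracketing the appropriate inhibition level. GI50 marks 50% less growth. TGI denotes the concentration required for complete inhibition of growth.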
# Assays:
# Test in all cases: NCI anticancer screen, dose series, 48 h
# [1] = tested on: 786-0 renal
# [2] = tested on: HCT-116 colon
# [3] = tested on: HL-60(TB) leukemia
# [4] = tested on: IGROV1 ovarian
# [5] = tested on: MDA-MB-231 breast
# [6] = tested on: NCI-H460 lung
# [7] = tested on: NCI-H522 lung
# [8] = tested on: SK-MEL-2 melanoma
# [9] = tested on: TK-10 renal
# [10] = tested on: UACC-62 melanoma
SMILES,TGI [1] [µM],TGI [2] [µM],TGI [3] [µM],TGI [4] [µM],TGI [5] [µM],TGI [6] [µM],TGI [7] [µM],TGI [8] [µM],TGI [9] [µM],TGI [10] [µM],GI50 [8] [µM]
CCOC(=O)c1nc2cc(N3CCOCC3)c(F)cc2[nH]c1=O,> 100,> 100,> 100,> 100,> 100,> 100,> 100,> 100,> 100,> 100,
CN1CCCN2CCN(C)CCN(CC1)CC2,> 100,> 100,> 100,> 100,> 100,> 100,> 100,> 100,> 100,> 100,
CCOC(=O)CN1CCNCCN(CC(=O)OCC)CCNCC1,> 100,> 100,> 100,> 100,> 100,> 100,> 100,> 100,> 100,> 100,
CSC(SC)=C1CC(=O)Nc2ccccc2C1=O,> 100,> 100,> 100,> 100,> 100,> 100,> 100,> 100,> 100,> 100,
Clc1ccc(N=C/C=C/Nc2ccc(Cl)cn2)nc1,18.3,25,3.91,28.9,16.2,32.7,28.4,29.2,34.9,26.2,
O=C(O)CC(C(=O)O)c1ccccc1[N+](=O)[O-] (stereo unspecified),> 100,> 100,> 100,> 100,> 100,> 100,> 100,> 100,> 100,> 100,
CC1=C(/C=C/C(C)=C/C=C/C(C)=C/C(=O)OCC2OC(n3cc(F)c(=O)[nH]c3=O)CC2OC(=O)/C=C(C)/C=C/C=C(C)/C=C/C2=C(C)CCCC2(C)C)C(C)(C)CCC1 (stereo unspecified),> 46.1,27.1,> 41.9,20,> 86.8,> 26.7,28.2,> 100,> 58.4,> 23.8,
Cc1ccc(/C=C2\CN(C)CC3=C2OC(N)=C(C#N)C3c2ccc(C)cc2)cc1 (stereo unspecified),32,27.5,> 100,39.4,> 63.7,34.3,> 49.9,> 63.4,> 80.8,89.1,
COc1cc(NS(C)(=O)=O)ccc1NCc1cnc2ccc3[nH]c(C)ccc3c12,> 100,> 100,34.9,> 100,> 100,> 100,> 100,52.3,> 100,> 100,
CSc1ccc2c(cc1=O)[C@@H](NC(C)=O)CCc1cc(O)c(O)c(O)c1-2,32.4,> 100,> 100,32.4,72.2,36.2,39.3,> 100,34.6,> 100,
CC/C(=N\NC(=O)c1cccnc1)c1ccc2c(c1)OCCO2,> 100,> 100,> 100,> 100,> 100,> 100,79.5,> 100,> 100,> 100,
Cc1ccc(Nc2nc(=S)[nH]c3[nH]ncc23)cc1,> 100,> 100,> 100,> 100,> 100,> 100,> 100,> 100,> 100,> 100,
COc1c2c(c(OC)c3c1c(=O)c1ccccc1n3C)OCO2,> 100,> 91.6,> 25.6,> 100,> 31.6,51.2,> 43.1,> 100,> 100,> 100,
O=C(c1ccccc1)c1ccc(C(c2c(O)c3ccccc3oc2=O)c2c(O)c3ccccc3oc2=O)cc1,48.9,> 80.2,> 100,> 60.9,> 71.4,> 100,43,> 71.3,36.7,39.5,
CCN(CC)c1ccc(/C=C(\C#N)c2nc(N)nc(N3N=C(C)CC3(C)C)n2)cc1,26.8,34.1,> 100,34.2,26.8,44.5,36.5,34.1,31.7,> 100,
C=C(O)c1ccccc1C#Cc1ccccc1C(=O)OC,> 10,> 10,> 10,> 10,> 10,> 10,> 10,> 10,> 10,> 10,
COc1ccc(OC)c(C2CCc3nc4nc(N)nc(N)c4cc3C2)c1 (stereo unspecified),6.91,3.46,7.86,26.7,5.4,19.2,4.94,4.35,23.6,4.18,
CCN1CC2=C(N=c3s/c(=C\c4ccc(Cl)cc4)c(=O)n3C2c2ccc(Cl)cc2)/C(=C/c2ccc(Cl)cc2)C1 (stereo unspecified),55.2,> 100,> 100,> 100,> 100,> 100,> 100,> 100,62.5,> 100,
C/C(=N/NC(=S)Nc1ccccc1Cl)c1ccccn1,15.8,14.2,< 0.0305,13.9,17.3,9.85,8.19,9.47,17.1,7.49,
Cc1c(N2C(=O)/C(=C/C=C/c3ccccc3)N=C2c2ccccc2)c(=O)n(-c2ccccc2)n1C,> 100,> 100,35.7,35.5,47.3,> 100,32.6,44.5,> 100,32,
Cc1ccc(S(=O)ON2CCC(C(=O)O)(c3ccccc3)CC2)cc1 (stereo unspecified),> 32.2,> 100,> 100,> 100,> 100,> 100,> 100,> 100,> 100,> 100,> 100
Brc1cccc(/C=C/CN2CCN(CCOC(c3ccccc3)c3ccccc3)CC2)c1,31.7,28.9,27.9,29.8,29.1,28.1,29.3,33.6,33.9,31.8,
O=c1c2ccccc2nc2n1NC(c1c(Cl)cccc1Cl)N2c1cccc(Cl)c1 (stereo unspecified),4.24,11.6,> 100,22.4,9.94,34.6,28.8,> 100,21.8,22.9,
CC(C)=CCC[C@]1(C)CC[C@]2(C)C3CCC(=C(C)C)[C@@H](CCCO)[C@]3(C)CC[C@@]2(C)C1 (stereo partly specified),> 100,> 100,84.3,37.9,> 100,> 100,37.2,71.5,44.3,> 100,
CC(=O)N=C(N=Nc1c(O)[nH]c2ccc(C)cc12)NC(C)=O,> 100,> 100,> 100,> 100,> 100,> 100,> 100,> 100,> 100,> 100,
